Experimental data: ChEMBL document CHEMBL4043189, “Design, synthesis, and evaluation of substituted nicotinamide adenine dinucleotide (NAD+) synthetase inhibitors as potential antitubercular agents” (Bioorg Med Chem Lett, 2017)
Values after ≈ are worked out from the molar mass of the structure shown.

Tests used:
[1] = Inhibition of recombinant Mycobacterium tuberculosis glutamine-dependent NadE using NAAD as substrate assessed as residual activity preincubated for 20 mins followed L-glutamine addition measured over 40 mins by spectrophotometric based PNP enzyme coupled assay
[2] = tested on: Mycobacterium tuberculosis; assay: Antitubercular activity against Mycobacterium tuberculosis H37Rv ATCC 27294 grown under Middlebrook 7H9 broth after 2 weeks by microscopic analysis; format: functional; details: H37Rv ATCC 27294, 336 h
[3] = tested on: Mycobacterium tuberculosis; assay: Antitubercular activity against NRP-2 stage of Mycobacterium tuberculosis H37Rv ATCC 27294 grown under glycerol free dubos broth after 7 days by microscopic analysis; format: functional; details: H37Rv ATCC 27294, 168 h
[4] = Inhibition of Bacillus anthracis NadE using guanidine-HCl as substrate after 10 mins by HPLC analysis
[5] = tested on: Bacillus anthracis; assay: Antibacterial activity against Bacillus anthracis Sterne spore forms measured every hour for 5 hrs by broth microdilution method; format: functional
[6] = Inhibition of recombinant Mycobacterium tuberculosis NH3-dependent NadE using NAAD as substrate assessed as residual activity preincubated for 20 mins followed NH4Cl addition measured over 40 mins by spectrophotometric based PNP enzyme coupled assay
[7] = tested on: Mycobacterium tuberculosis; assay: Antitubercular activity against Mycobacterium tuberculosis H37Rv incubated for 7 days under anaerobic condition measured by broth microdilution method; format: functional; details: 168 h

| Compound | IC50 [1] [µM] | MIC [2] [µg/mL] | MIC [3] [µg/mL] | IC50 [4] [µM] | MIC [5] [µM] | IC50 [6] [µM] | MIC [7] [µM] |
| --- | --- | --- | --- | --- | --- | --- | --- |
| N#Cc1ccc(NS(=O)(=O)c2ccc(NC(=O)Nc3ccc([N+](=O)[O-])cc3)cc2)cc1 | 190 | 37 (≈ 84.6 µM) | 37 (≈ 84.6 µM) |  |  |  |  |
| O=C(Nc1ccc([N+](=O)[O-])cc1)Nc1ccc(S(=O)(=O)Nc2ccc(Cl)cc2)cc1 | 520 | 25 (≈ 55.9 µM) | 37 (≈ 82.8 µM) |  |  |  |  |
| NCc1ccc(S(=O)(=O)Nc2ccc(NC(=O)Nc3cccc([N+](=O)[O-])c3)cc2)cc1 |  |  |  | 15.3 | > 240 |  |  |
| NNC(=O)c1ccncc1 [ISONIAZID] |  | 0.05 (≈ 0.365 µM) | 0.03 (≈ 0.219 µM) |  |  |  |  |
| COc1ccc(NS(=O)(=O)c2ccc(NC(=O)Nc3ccc([N+](=O)[O-])cc3)cc2)cc1 | 130 | 25 (≈ 56.5 µM) | 50 (≈ 113 µM) |  |  | > 200 |  |
| O=C(Nc1ccc([N+](=O)[O-])cc1)Nc1ccc(S(=O)(=O)Nc2ccc(F)cc2)cc1 | 170 | 19 (≈ 44.1 µM) | 25 (≈ 58.1 µM) |  |  |  |  |
| O=C(Nc1ccc([N+](=O)[O-])cc1)Nc1ccc(S(=O)(=O)Nc2ccccc2)cc1 | 125 | 75 (≈ 182 µM) | 12.5 (≈ 30.3 µM) |  |  | > 200 |  |
| O=C(Nc1ccc([N+](=O)[O-])cc1)Nc1ccc(S(=O)(=O)Nc2cccc([N+](=O)[O-])c2)cc1 | 170 | 25 (≈ 54.7 µM) | 12.5 (≈ 27.3 µM) |  |  |  |  |
| O=C(Nc1ccc([N+](=O)[O-])cc1)Nc1ccc(S(=O)(=O)Nc2ccc(Cl)c(Cl)c2)cc1 | 1000 | 25 (≈ 51.9 µM) | 50 (≈ 104 µM) | 6.4 |  |  |  |
| O=C(Nc1ccc([N+](=O)[O-])cc1)Nc1ccc(S(=O)(=O)Nc2ccc(O)cc2)cc1 | 160 | 37 (≈ 86.4 µM) | 50 (≈ 117 µM) |  |  |  |  |
| O=C(Nc1ccc([N+](=O)[O-])cc1)Nc1ccc(S(=O)(=O)Nc2ccc([N+](=O)[O-])c(C(F)(F)F)c2)cc1 | 190 | 100 (≈ 190 µM) | 50 (≈ 95.2 µM) |  |  |  |  |
| O=C(Nc1ccc([N+](=O)[O-])cc1)Nc1ccc(S(=O)(=O)Nc2cccc(C(F)(F)F)c2)cc1 | 130 | 37 (≈ 77 µM) | 50 (≈ 104 µM) |  |  | > 200 |  |
| O=C(Nc1ccc([N+](=O)[O-])cc1)Nc1ccc(S(=O)(=O)Nc2ccc(I)cc2)cc1 | 370 | 37 (≈ 68.7 µM) | 50 (≈ 92.9 µM) |  |  |  |  |
| COC(=O)c1cc2cc(OCc3ccccc3)ccc2n1CCCCCCCOC(=O)Cc1ccc([N+](C)(C)C)cc1 |  |  |  |  |  |  | 20 |
| O=C(Nc1ccc([N+](=O)[O-])cc1)Nc1ccc(S(=O)(=O)Nc2ccc([N+](=O)[O-])cc2)cc1 | 90 | 37 (≈ 80.9 µM) | 25 (≈ 54.7 µM) |  |  | > 200 |  |
